Where two headings read alike, the source gives them in different places. Bridge positions count the residues as written; N and C are the ends. Square brackets hold non-standard residues; d marks the D form. Peptide text beside a SMILES is read from it. * marks the point of attachment. X2 = CN1C[C@H](CSCC(=O)*)C[C@@H]2c3cccc4[nH]cc(c34)C[C@H]21
What was measured:
hSSTR2 [1] = biological target: T1, hSSTR2 (Homo sapiens, UniProt P30874); experiment: Intracellular calcium mobilization assay (FLIPR Calcium 4), hSSTR2; format: cell-based
T1 construct: host or cells: 'Cells expressing hSSTR2'
Protocol: The ability of select compounds according to the present invention to activate hSSTR2 and hDRD2 was determined by the intracellular calcium mobilization assay using FLIPR Calcium 4 assay kit (Molecular Devices).
Cells expressing hSSTR2 or hDRD2 were plated in 384-well microplates in tissue culture media and incubated for 16-24 hours at 37° C. in a humidified atmosphere with 5% CO2. Medium was replaced by loading buffer containing Hank's buffered saline, 20 mM HEPES, 2.5 mM probenecid and Calcium 4 dye, and the plates were incubated at 37° C. for 60 minutes.

[2] = system: pituitary tumor cells of acromegalic patients presenting with macroadenoma; experiment: Human pituitary adenoma cell growth hormone release assay; format: cell-based; conditions: 18 hours incubation, AlphaLISA GH immunoassay; FIG. 5
Protocol: FIG. 1 is a graph showing the Growth hormone suppressing activity of Compound 4 (see Table I hereinbelow for its chemical name and its corresponding structural representation) on pituitary tumor cells of acromegalic patients presenting with macroadenoma. Various concentrations of Compound 4 were added to the medium and the cells were incubated for 18 hours before measurement of Growth hormone levels in the medium using the AlphaLISA Growth Hormone Immunoassay Research kit (PerkinElmer).
Various concentrations of Compounds 4 and 5 were added to the medium and the cells were incubated for 18 hours before measurement of Growth hormone levels in the medium using the AlphaLISA Growth Hormone Immunoassay Research kit (PerkinElmer).
Acromegalic patients presenting with macroadenoma underwent transsphenoidal surgery and a portion of each tumor obtained at surgery was dissociated by enzymatic and mechanical methods. The cells were cultured in DMEM medium supplemented with 10% FBS and antibiotics for 3 days. The cells were then plated in multi-well tissue culture dishes coated with extracellular matrix from bovine endothelial corneal cells at a density of 3-5×10^4 cells/well in DMEM supplemented with 10% FBS and antibiotics. After 2-3 days of culture, the medium was changed to DMEM supplemented with 1% FBS, antibiotics and 1% ITS (insulin, transferrin and selenium).

hSSTR2 [3] = biological target: T1, hSSTR2; experiment: Somatostatin receptor radioligand binding assay, hSSTR2
Protocol: The affinities of a test compound for the human somatostatin receptors were determined by radioligand binding assays in CHO-K1 cells stably transfected with each of the human somatostatin receptor subtypes, hSSTR1-5. The cDNA coding sequences of hSSTR1 (GenBank accession No. NM_001049.1), hSSTR2 (GenBank accession No. XM_012697.1), hSSTR3 (GenBank accession No. XM_009963.1), hSSTR4 (GenBank accession No. NM_001052.1), and hSSTR5 (GenBank accession No. XM_012565.1) were subcloned into the mammalian expression vector pcDNA3.1 (Life Technologies). Clonal cell lines stably expressing each of the somatostatin receptors were obtained by transfection into CHO-K1 cells (ATCC) and subsequently selected with culture media containing 0.8 mg/mL of G418 (Life Technologies).
Membranes for in vitro receptor binding assays were obtained by the following procedures. […] The supernatant containing the plasma membranes was centrifuged at 100,000×g for 30 minutes and the pellet was resuspended in buffer containing 20 mM glycine-glycine, 1 mM MgCl2, 250 mM sucrose, pH 7.2, for storage at −80° C. […]

T1 sequence (P30874 whole entry): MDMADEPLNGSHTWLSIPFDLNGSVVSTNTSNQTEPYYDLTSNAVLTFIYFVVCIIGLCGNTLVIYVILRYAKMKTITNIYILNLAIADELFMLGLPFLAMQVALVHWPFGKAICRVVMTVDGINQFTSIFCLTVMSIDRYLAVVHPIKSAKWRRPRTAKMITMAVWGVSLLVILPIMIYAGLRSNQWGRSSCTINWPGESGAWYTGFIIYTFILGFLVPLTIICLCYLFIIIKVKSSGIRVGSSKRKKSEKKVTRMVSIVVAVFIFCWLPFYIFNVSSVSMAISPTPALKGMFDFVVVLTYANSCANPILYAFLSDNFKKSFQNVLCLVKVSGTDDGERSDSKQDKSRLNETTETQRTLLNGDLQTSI

`C[C@@H](O)[C@@H]1NC(=O)[C@H](CCCCN)NC(=O)[C@@H](Cc2c[nH]c3ccccc23)NC(=O)[C@H](Cc2ccccc2)NC(=O)[C@H](Cc2ccccc2)NC(=O)[C@H](CCCNC(=N)N)NC(=O)[C@H](NC(=O)CSC[C@@H]2C[C@@H]3c4cccc5[nH]cc(c45)C[C@H]3N(C)C2)CCCCNC(=O)[C@H](Cc2ccccc2)NC1=O` [Compound 44, Dop1-cyclo(DLys-Arg-Phe-Phe-DTrp-Lys-Thr-Phe)] (X2-[dK]RFF[dW]KTF; lactam 1-C) showed an Emax (hSSTR2 [1]; read-out: hSSTR2 % Emax ± SEM) of 97.1 ± 5.9%.
For `C[C@@H](O)[C@@H]1NC(=O)[C@H](CCCCN)NC(=O)[C@@H](Cc2c[nH]c3ccccc23)NC(=O)[C@H](Cc2ccccc2)NC(=O)[C@H](Cc2ccccc2)NC(=O)[C@H](CCCNC(=N)N)NC(=O)[C@H](NC[C@H](Cc2ccc(O)cc2)NC(=O)CSC[C@@H]2C[C@@H]3c4cccc5[nH]cc(c45)C[C@H]3N(C)C2)CCCCNC(=O)[C@H](Cc2ccc(F)cc2)NC1=O` [Compound 5, Dop1-Tyr-psi(CH2NH)-cyclo(DLys-Arg-Phe-Phe-DTrp-Lys-Thr-4FPhe)], the “Growth hormone suppressing activity compared to the parent somatostatin analogs” value [2] was “enhanced Growth hormone suppressing activity”.
`C[C@@H](O)[C@@H]1NC(=O)[C@H](CCCCN)NC(=O)[C@@H](Cc2c[nH]c3ccccc23)NC(=O)[C@H](Cc2ccccc2)NC(=O)[C@H](Cc2ccccc2)NC(=O)[C@H](CCCNC(=N)N)NC(=O)[C@@H](NC[C@H](Cc2ccc(O)cc2)NC(=O)CSC[C@@H]2C[C@@H]3c4cccc5[nH]cc(c45)C[C@H]3N(C)C2)CCCNC(=O)[C@H](Cc2ccccc2)NC1=O` [Compound 43, Dop1-Tyr-psi(CH2NH)-cyclo(Orn-Arg-Phe-Phe-DTrp-Lys-Thr-Phe)] showed a Ki (hSSTR2 [3]) of 1.07 ± 0.39 nM and an EC50 (hSSTR2 [1]) of 31.6 ± 4.3 nM.
Compound `C[C@@H](O)[C@@H]1NC(=O)[C@H](CCCCN)NC(=O)[C@@H](Cc2c[nH]c3ccccc23)NC(=O)[C@H](Cc2ccc(O)cc2)NC(=O)[C@H](Cc2ccncc2)NC(=O)[C@H](CCCNC(=N)N)NC(=O)[C@H](NC[C@@H](Cc2ccc(O)cc2)NC(=O)CSC[C@@H]2C[C@@H]3c4cccc5[nH]cc(c45)C[C@H]3N(C)C2)CCCCNC(=O)[C@H](Cc2ccccc2)NC1=O` [Compound 46, Dop1-DTyr-psi(CH2NH)-cyclo(DLys-Arg-4Pal-Tyr-DTrp-Lys-Thr-Phe)] has a Ki (hSSTR2 [3]; CHO-K1 membranes, [125I-Tyr]-seglitide, read-out: hSSTR2 Ki (nM) ± SEM) of 0.52 ± 0.06 nM and an EC50 (hSSTR2 [1]; calcium mobilization, cells expressing hSSTR2, read-out: hSSTR2 EC50 (nM) ± SEM) of 60 nM.
For `C[C@@H](O)[C@@H]1NC(=O)[C@H](CCCCN)NC(=O)[C@@H](Cc2c[nH]c3ccccc23)NC(=O)[C@H](Cc2ccncc2)NC(=O)[C@H](Cc2ccccc2)NC(=O)[C@H](CCCNC(=N)N)NC(=O)[C@H](NC[C@H](Cc2ccc(O)cc2)NC(=O)CSC[C@@H]2C[C@@H]3c4cccc5[nH]cc(c45)C[C@H]3N(C)C2)CCCCNC(=O)[C@H](Cc2ccccc2)NC1=O` [Compound 4, Dop1-Tyr-psi(CH2NH)-cyclo(DLys-Arg-Phe-4Pal-DTrp-Lys-Thr-Phe)], the “Growth hormone suppressing activity compared to the parent somatostatin analogs” value [2] was “enhanced Growth hormone suppressing activity”.
